According to ChEMBL document CHEMBL4138231 (Eur J Med Chem, 2018):
pIC50: −log10 of the molar value. Active and inactive are the calls of the source. The rule behind the calls is not given here.

Tests used:
[1] = system: HeLa; experiment: Antiproliferative activity against human HeLa cells after 72 hrs by CCK8 assay; assay type: functional
[2] = molecular target: Serine/threonine-protein kinase PLK1 (Homo sapiens, UniProt P53350); experiment: Inhibition human recombinant full length His-tagged Plk1 expressed in baculovirus expression system after 1 hr by FRET-based Z'-Lyte assay
Chain of Serine/threonine-protein kinase PLK1 (P53350 whole entry): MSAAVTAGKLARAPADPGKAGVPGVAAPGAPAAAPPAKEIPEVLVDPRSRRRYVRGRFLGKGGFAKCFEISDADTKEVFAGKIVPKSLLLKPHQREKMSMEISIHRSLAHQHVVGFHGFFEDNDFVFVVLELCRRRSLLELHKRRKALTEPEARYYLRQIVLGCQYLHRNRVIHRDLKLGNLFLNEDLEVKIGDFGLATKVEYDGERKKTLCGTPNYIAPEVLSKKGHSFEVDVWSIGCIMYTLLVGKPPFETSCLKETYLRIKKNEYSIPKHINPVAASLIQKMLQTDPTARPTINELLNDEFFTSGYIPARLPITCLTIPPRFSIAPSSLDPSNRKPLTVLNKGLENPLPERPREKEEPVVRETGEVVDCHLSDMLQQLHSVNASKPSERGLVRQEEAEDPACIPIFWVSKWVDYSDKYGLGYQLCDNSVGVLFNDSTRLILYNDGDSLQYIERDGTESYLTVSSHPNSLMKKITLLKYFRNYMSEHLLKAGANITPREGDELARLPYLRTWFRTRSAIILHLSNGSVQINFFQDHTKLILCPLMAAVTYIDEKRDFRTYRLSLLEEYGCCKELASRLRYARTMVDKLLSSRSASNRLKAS

[3] = system: MCF7; experiment: Antiproliferative activity against human MCF7 cells after 72 hrs by CCK8 assay; assay type: functional; conditions: MCF7, 72 h
[4] = system: Huh-7; experiment: Antiproliferative activity against human HuH7 cells after 72 hrs by CCK8 assay; assay type: functional
[5] = molecular target: Serine/threonine-protein kinase PLK2 (Homo sapiens, UniProt Q9NYY3); experiment: Inhibition human recombinant full length GST-tagged Plk2 expressed in baculovirus expression system after 1 hr by FRET-based Z'-Lyte assay
Chain of Serine/threonine-protein kinase PLK2 (Q9NYY3 whole entry): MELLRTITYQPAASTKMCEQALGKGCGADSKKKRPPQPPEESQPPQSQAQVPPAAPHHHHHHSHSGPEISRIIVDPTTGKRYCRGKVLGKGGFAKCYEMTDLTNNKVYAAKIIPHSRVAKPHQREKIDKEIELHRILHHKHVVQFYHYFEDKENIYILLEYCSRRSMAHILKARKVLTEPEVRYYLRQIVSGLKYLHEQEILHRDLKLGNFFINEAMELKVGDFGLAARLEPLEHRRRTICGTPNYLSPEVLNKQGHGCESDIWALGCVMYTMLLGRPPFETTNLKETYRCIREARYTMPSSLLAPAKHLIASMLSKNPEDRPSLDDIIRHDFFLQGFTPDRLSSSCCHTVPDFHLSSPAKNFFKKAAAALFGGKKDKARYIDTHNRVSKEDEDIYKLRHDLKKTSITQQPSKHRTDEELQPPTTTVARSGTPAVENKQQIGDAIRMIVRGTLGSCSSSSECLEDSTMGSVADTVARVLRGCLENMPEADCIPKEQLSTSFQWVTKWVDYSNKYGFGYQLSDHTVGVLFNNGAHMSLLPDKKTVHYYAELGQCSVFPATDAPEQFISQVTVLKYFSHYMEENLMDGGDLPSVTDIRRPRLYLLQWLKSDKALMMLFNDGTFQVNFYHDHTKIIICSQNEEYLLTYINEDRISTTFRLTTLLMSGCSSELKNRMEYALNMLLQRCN

[6] = system: A549; experiment: Antiproliferative activity against human A549 cells after 72 hrs by CCK8 assay; assay type: functional
[7] = system: NCI-H1975; experiment: Antiproliferative activity against human NCI-H1975 cells after 72 hrs by CCK8 assay; assay type: functional; conditions: NCI-H1975, 72 h
[8] = molecular target: Serine/threonine-protein kinase PLK3 (Homo sapiens, UniProt Q9H4B4); experiment: Inhibition human recombinant GST-tagged Plk3 catalytic domain (58 to 340 residues) expressed in baculovirus expression system after 1 hr by FRET-based Z'-Lyte assay
Chain of Serine/threonine-protein kinase PLK3 (Q9H4B4 whole entry, the tested form may be a part): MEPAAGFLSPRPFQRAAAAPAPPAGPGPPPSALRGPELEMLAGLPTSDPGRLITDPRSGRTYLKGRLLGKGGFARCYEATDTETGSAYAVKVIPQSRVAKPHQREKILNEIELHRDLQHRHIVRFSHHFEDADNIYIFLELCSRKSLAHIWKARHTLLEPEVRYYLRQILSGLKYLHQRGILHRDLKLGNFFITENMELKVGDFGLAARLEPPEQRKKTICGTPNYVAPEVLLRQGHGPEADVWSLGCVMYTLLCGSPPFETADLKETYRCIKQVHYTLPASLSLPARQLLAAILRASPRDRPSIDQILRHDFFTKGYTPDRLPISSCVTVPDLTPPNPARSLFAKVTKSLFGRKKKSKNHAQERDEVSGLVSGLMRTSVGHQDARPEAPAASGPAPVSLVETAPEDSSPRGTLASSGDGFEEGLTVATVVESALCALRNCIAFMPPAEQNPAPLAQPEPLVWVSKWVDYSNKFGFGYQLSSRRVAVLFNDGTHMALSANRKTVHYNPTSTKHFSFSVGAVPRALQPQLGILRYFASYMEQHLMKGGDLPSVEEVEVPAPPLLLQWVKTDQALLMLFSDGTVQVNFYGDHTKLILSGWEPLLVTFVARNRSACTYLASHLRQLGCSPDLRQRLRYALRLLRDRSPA

[9] = system: K562; experiment: Antiproliferative activity against human K562 cells after 72 hrs by CCK8 assay; assay type: functional; conditions: K562, 72 h

Row | GI50 [1] | pIC50 [2] | GI50 [3] | GI50 [4] | pIC50 [5] | GI50 [6] | GI50 [7] | pIC50 [8] | GI50 [9] | GI50 ([4]; Huh-7, 72 h) | GI50 ([6]; A549, 72 h) | Compound
1 | inactive | < 5.00 | 24.7 µM | inactive | 5.82 | inactive | 28.6 µM | < 5.00 | 6.07 µM |  |  | CCC1C(=O)N(C)c2cnc(-n3ccc4cc(F)ccc43)nc2N1c1ccn(C)n1 (racemic)
2 | 4.35 µM |  | 8.42 µM |  | 6.90 |  | 12.2 µM | < 5.00 | 8.91 µM | 6.74 µM | 22 µM | CCC1C(=O)N(C)c2cnc(-n3ccc4cc(C(=O)NC(C)C)ccc43)nc2N1c1ccn(C)n1 (racemic)
